Results on one compound are retold here after patent US12448358B2, “Inhibitors of protein arginine deiminase 1 and methods of preparation and use thereof” (University of Massachusetts, priority 2019, dated 2025).

The target of the assay is T1, PAD1 (Homo sapiens, UniProt Q9ULC6).
T1 construct: made in house
T1 sequence (Q9ULC6 1-663): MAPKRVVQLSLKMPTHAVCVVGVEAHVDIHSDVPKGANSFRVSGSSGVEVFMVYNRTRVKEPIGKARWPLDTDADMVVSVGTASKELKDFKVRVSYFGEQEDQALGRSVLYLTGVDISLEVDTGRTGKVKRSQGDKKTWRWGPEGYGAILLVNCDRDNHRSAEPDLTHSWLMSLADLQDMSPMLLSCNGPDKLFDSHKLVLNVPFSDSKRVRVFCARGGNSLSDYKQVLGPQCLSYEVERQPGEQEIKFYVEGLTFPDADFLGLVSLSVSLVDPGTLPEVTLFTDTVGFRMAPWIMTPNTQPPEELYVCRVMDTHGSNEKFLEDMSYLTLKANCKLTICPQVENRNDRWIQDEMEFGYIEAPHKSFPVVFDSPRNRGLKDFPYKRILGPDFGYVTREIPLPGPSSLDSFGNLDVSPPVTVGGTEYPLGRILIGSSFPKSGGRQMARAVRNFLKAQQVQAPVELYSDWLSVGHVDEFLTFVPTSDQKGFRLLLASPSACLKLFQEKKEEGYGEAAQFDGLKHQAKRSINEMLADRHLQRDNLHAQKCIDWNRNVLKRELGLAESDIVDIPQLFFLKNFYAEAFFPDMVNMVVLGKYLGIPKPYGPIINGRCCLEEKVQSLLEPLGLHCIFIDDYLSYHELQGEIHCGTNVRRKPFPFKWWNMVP
The experiment in a line: Streptavidin enrichment and ReDiMe proteomics of proteins labelled by probe in HEK293TPAD1 cells (PAD1). The class given is cell-based. Particulars: 5 μM probe versus control. The method, then: Enrichment of Proteins Labelled by 21 in HEK293TPAD1 Cells on Streptavidin-agarose. HEK293TPAD1 cells were cultured in 175 cm^2 T-175 flasks in DMEM (supplemented with 10% heat-inactivated fetal bovine serum, 100 units/mL penicillin, 100 μg/mL streptomycin and 0.15 mg/mL hygromycin B). Upon reaching ˜90% confluence, cells were treated with 1 mM CaCl2, 5 μM ionomycin and 5 μM of 21 (or equal volume of DMSO for control) in serum-free DMEM for 3 h. Then the cells were scraped, harvested by centrifugation at 3,000 rpm for 5 min and resuspended in 1×PBS. Cell lysis was performed by probe sonication and soluble proteins in the lysates were quantified by DC Assay (Bio-Rad). Endogenous biotinylated proteins were precleared by incubating the lysates with streptavidin-agarose beads (25 μL for 1 mg of total protein in the lysate) at room temperature for 1 h with constant mixing on an end-over-end shaker. The mixture was centrifuged (1200 g, 3 minute) to separate the beads and the supernatant (pre-cleared lysate). Pre-cleared lysates (2 mg/mL, 500 μL final) were clicked with Biotin-N3 (100 μM), TCEP (1.5 mM), TBTA (0.3 mM) and freshly prepared CuSO4 (4 mM), and the tubes were gently tumbled at room temperature for 2 h. The precipitated proteins were collected by centrifugation at 5,000 rpm for 10 min. […]

With `C#Cc1c(I)cc(C(=O)N[C@@H](CCCNC(=N)CF)c2nc3ccccc3[nH]2)c(O)c1I` [Compound 21], the “Enrichment ratio (heavy/light) of PAD1” value is given as about 20.
